In patent US9487511B2, “Cyclopropanamine compound and use thereof” (Takeda Pharmaceutical Company Limited, priority 2014, dated 2016):
Structures can show the parent of a compound that is named as a salt.

Legend:
Format in all cases: biochemical
[1] = target: MAO-A enzyme (Homo sapiens (Human), UniProt P21397); assay: Measurement of MAO-A inhibitory activity (MAO-Glo Assay)
Description: The MAO-A inhibitory activity evaluation described below followed the protocol of MAO-Glo (registered trademark) Assay of Promega KK.
A test compound dissolved in DMSO was added to a reaction solution (100 mM HEPES (pH 7.5), 5% glycerol) containing MAO-A enzyme (Sigma-Aldrich Co. LLC.), and the mixture was reacted at room temperature for 15 min. MAO substrate (Promega KK) was added to start the reaction. After reaction at room temperature for 60 min, Luciferine detection reagent (Promega KK) was added to terminate the reaction. After reaction at room temperature for 20 min with stirring, the luminescence was measured by Envision (PerkinElmer). The MAO-A inhibitory rate (%) of the test compound was calculated by the following formula. inhibitory rate (%)=(1−(test compound count−blank)÷(control−blank))×100
The count of the MAO-A enzyme reaction mixture under compound non-addition conditions is indicated as control, and the count under compound non-addition and MAO-A enzyme non-addition conditions is indicated as blank.

[2] = target: MAO-B enzyme (Homo sapiens (Human), UniProt P27338); assay: Measurement of MAO-B inhibitory activity (MAO-Glo Assay)
Description: The MAO-B inhibitory activity evaluation described below followed the protocol of MAO-Glo (registered trademark) Assay of Promega KK.
A test compound dissolved in DMSO was added to a reaction solution (100 mM HEPES (pH 7.5), 5% glycerol, 10% DMSO) containing MAO-B enzyme (Sigma-Aldrich Co. LLC.), and the mixture was reacted at room temperature for 15 min. MAO substrate (Promega KK) was added to start the reaction. After reaction at room temperature for 60 min, Luciferine detection reagent (Promega KK) (50 μL) was added to terminate the reaction. After reaction at room temperature for 20 min with stirring, the luminescence was measured by Envision (PerkinElmer). The MAO-B inhibitory rate (%) of the test compound was calculated by the following formula. inhibitory rate (%)=(1−(test compound count−blank)÷(control−blank))×100
The count of the MAO-B enzyme reaction mixture under compound non-addition conditions is indicated as control, and the count under compound non-addition and MAO-B enzyme non-addition conditions is indicated as blank.

[3] = target: human LSD1(172-833) (Homo sapiens (Human), UniProt O60341); assay: Measurement of LSD1 inhibitory activity (time-resolved fluorescence, biotin-histone H3 mono methylated K4 peptide); conditions: 60 min preincubation with enzyme at room temperature;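 note: after the compound–enzyme step, substrate reaction 5 min at room temperature in Tris-HCl pH 8.0 with BSA and DTT, halted by 2-PCPA, detected with europium anti-histone H3 antibody plus Streptavidin-XL665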
Description: A test compound dissolved in DMSO was added by to a reaction solution (50 mM Tris-HCl (pH 8.0), 0.1% BSA, 1 mM DTT) containing LSD1 enzyme, and the mixture was reacted at room temperature for 60 min. […] After reaction at room temperature for 5 min, 2-PCPA solution was added to terminate the reaction. A detection solution (800 mM potassium fluoride, 0.1% BSA) containing europium-labeled anti-histone H3 antibody (Wako Pure Chemical Industries, Ltd.) and Streptavidin-XL665 (Cisbio) was further added, and the mixture was left standing for 60 min. […] The LSD1 inhibitory rate (%) of the test compound was calculated by the following formula. inhibitory rate (%)=(1−(test compound count−blank)÷(control−blank))×100
The count of the LSD1 enzyme reaction mixture under compound non-addition conditions is indicated as control, and the count under compound non-addition and LSD1 enzyme non-addition conditions is indicated as blank. A concentration necessary for achieving 50% inhibitory rate was taken as ICH value.

Chain of MAO-B enzyme (P27338 whole entry): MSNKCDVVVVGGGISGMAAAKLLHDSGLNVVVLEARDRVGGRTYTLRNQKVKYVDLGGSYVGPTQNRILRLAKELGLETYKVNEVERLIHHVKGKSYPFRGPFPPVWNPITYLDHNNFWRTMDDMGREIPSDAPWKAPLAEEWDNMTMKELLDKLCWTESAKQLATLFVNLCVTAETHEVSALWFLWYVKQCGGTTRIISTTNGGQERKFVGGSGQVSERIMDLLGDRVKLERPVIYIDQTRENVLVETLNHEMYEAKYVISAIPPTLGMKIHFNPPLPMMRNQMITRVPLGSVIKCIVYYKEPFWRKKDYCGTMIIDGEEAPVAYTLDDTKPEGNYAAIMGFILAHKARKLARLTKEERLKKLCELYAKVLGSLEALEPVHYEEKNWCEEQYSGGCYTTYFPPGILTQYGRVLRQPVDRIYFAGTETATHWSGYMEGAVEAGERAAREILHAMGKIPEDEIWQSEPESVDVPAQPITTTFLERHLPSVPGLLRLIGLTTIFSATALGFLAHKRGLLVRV
Chain of MAO-A enzyme (P21397 whole entry): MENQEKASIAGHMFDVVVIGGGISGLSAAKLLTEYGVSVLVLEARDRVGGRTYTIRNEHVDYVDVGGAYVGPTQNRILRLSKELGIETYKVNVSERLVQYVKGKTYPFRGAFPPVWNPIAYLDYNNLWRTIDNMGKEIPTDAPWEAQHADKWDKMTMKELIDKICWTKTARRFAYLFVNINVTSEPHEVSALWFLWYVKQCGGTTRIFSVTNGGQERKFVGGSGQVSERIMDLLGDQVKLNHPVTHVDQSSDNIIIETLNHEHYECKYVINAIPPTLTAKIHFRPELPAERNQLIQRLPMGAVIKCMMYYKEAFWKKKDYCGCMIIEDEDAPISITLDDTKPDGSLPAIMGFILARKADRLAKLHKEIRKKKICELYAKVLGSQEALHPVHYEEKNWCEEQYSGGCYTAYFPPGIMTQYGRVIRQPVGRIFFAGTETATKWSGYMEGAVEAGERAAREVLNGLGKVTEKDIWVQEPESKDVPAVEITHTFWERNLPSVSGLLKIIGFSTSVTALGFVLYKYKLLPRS

Row | Structure (SMILES) | IC50 [1] [µM] | IC50 [2] [µM] | IC50 [3] [µM]
1 | O=C(NC1CCC(F)(F)CC1)c1csc([C@@H]2C[C@H]2NC2CCOCC2)c1 [Example 44, N-(4,4-difluorocyclohexyl)-5-((1R,2R)-2-(tetrahydro-2H-pyran-4-ylamino)cyclopropyl)thiophene-3-carboxamide hydrochloride] | > 100 | 100 | < 0.1
2 | N[C@H]1CC[C@H](N[C@@H]2C[C@H]2c2cc(C(=O)NC3CCC(F)(F)CC3)cs2)CC1 [Example 46, 5-((1R,2R)-2-(trans-(4-aminocyclohexyl)amino)cyclopropyl)-N-(4,4-difluorocyclohexyl)thiophene-3-carboxamide dihydrochloride] | > 100 | > 100 | < 0.1
3 | O=C(NC1CCOCC1)c1csc([C@@H]2C[C@H]2NC2CCC(F)(F)CC2)c1 [Example 47, 5-((1R,2R)-2-((4,4-difluorocyclohexyl)amino)cyclopropyl)-N-(tetrahydro-2H-pyran-4-yl)thiophene-3-carboxamide hydrochloride] | > 100 | > 100 | < 0.1
4 | Cc1nnc(NC(=O)c2csc([C@@H]3C[C@H]3NC3CCN(C4CC4)CC3)c2)s1 [Example 48, 5-((1R,2R)-2-((1-cyclopropylpiperidin-4-yl)amino)cyclopropyl)-N-(5-methyl-1,3,4-thiadiazol-2-yl)thiophene-3-carboxamide dihydrochloride] | 31 | > 100 | < 0.1
5 | Cc1nnc(NC(=O)c2csc([C@@H]3C[C@H]3NC3CCOCC3)c2)s1 [Example 49, N-(5-methyl-1,3,4-thiadiazol-2-yl)-5-((1R,2R)-2-(tetrahydro-2H-pyran-4-ylamino)cyclopropyl)thiophene-3-carboxamide hydrochloride] | > 100 | > 100 | < 0.1
6 | Cc1ncc(NC(=O)c2csc([C@@H]3C[C@H]3NC3CCOCC3)c2)s1 [Example 50, N-(2-methyl-1,3-thiazol-5-yl)-5-((1R,2R)-2-(tetrahydro-2H-pyran-4-ylamino)cyclopropyl)thiophene-3-carboxamide hydrochloride] | > 100 | > 100 | < 0.1
7 | O=C(NC1CCC(F)(F)CC1)c1csc([C@@H]2C[C@H]2NCC2CCOCC2)c1 [Example 51, N-(4,4-difluorocyclohexyl)-5-((1R,2R)-2-((tetrahydro-2H-pyran-4-ylmethyl)amino)cyclopropyl)thiophene-3-carboxamide hydrochloride] | > 100 | > 100 | < 0.1
8 | O=C(NC1CCN(CC(F)(F)F)CC1)c1csc([C@@H]2C[C@H]2NCC2CCOCC2)c1 [Example 52, 5-((1R,2R)-2-((tetrahydro-2H-pyran-4-ylmethyl)amino)cyclopropyl)-N-(1-(2,2,2-trifluoroethyl)piperidin-4-yl)thiophene-3-carboxamide hydrochloride] | > 100 | > 100 | < 0.1
9 | Cc1ncc(NC(=O)c2csc([C@@H]3C[C@H]3NCC3CCOCC3)c2)s1 [Example 53, N-(2-methyl-1,3-thiazol-5-yl)-5-((1R,2R)-2-((tetrahydro-2H-pyran-4-ylmethyl)amino)cyclopropyl)thiophene-3-carboxamide dihydrochloride] | 61 | 96 | < 0.1
10 | Cc1nn(C)cc1NC(=O)c1csc([C@@H]2C[C@H]2NCC2CCOCC2)c1 [Example 54, N-(1,3-dimethyl-1H-pyrazol-4-yl)-5-((1R,2R)-2-((tetrahydro-2H-pyran-4-ylmethyl)amino)cyclopropyl)thiophene-3-carboxamide dihydrochloride] | > 100 | > 100 | < 0.1
11 | Cc1c(NC(=O)c2csc([C@@H]3C[C@H]3NCC3CCOCC3)c2)cnn1C [Example 55, N-(1,5-dimethyl-1H-pyrazol-4-yl)-5-((1R,2R)-2-((tetrahydro-2H-pyran-4-ylmethyl)amino)cyclopropyl)thiophene-3-carboxamide dihydrochloride] | > 100 | > 100 | < 0.1
